Measured values: patent publication US12366570B2, “Cell-based ZNT8 assay” (THE JOHNS HOPKINS UNIVERSITY, priority 2019, dated 2025)

Experiments:
EndoC-βH1 cells [1] = experiment: CellTox Green cytotoxicity assay; assay type: cell-based
Protocol: Cytotoxicity Assay. Cell culture and experiments were performed in a 96-well plate in culture media without phenol red (Sigma, Cat. #D4947). Cytotoxicity in cell culture after experimental manipulation was continuously monitored based on the change in the fluorescence intensity of a CellTox Green Dye (Promega, Cat. #G8741) that preferentially stained dead cells with a loss of membrane integrity. The dye was 1:1000 diluted in the culture medium and delivered directly to cells at the same time of dose titrations of Glc+PA, zinc and cytokines. CellTox fluorescence signals were recorded on a FlexStation-3 multi-mode microplate reader with eight replicates at 0, 1, 2, 4, 6, 8, 20, 24, 30, and 48 hr following dye and stressor additions. Viable cells in the control cell culture medium produced no appreciable increases in CellTox fluorescence due to an excellent tolerance of EndoC-βH1 cells to the dye. At the end of experiment, all cells were lysed by adding detergent (DDM) to 0.1% in each well, and the maximum CellTox fluorescence intensity was recoded and used for normalization of the CellTox fluorescence intensity.
(§1) SLC30A8 knockdown. To perform gene silencing by RNA interference, a master mix of Opti-MEM reduced serum-free medium (Gibco, cat. #31985-062) was pre-mixed with 0.4% RNAiMAX transfection reagent (Invitrogen, cat. #13778-100) and 75 nM ZnT8 targeting or scrambled siRNA (OriGene cat. #SR325944). The solution was then incubated at room temperature for 10 min to form siRNA-lipid complexes before 50 μl of the master mix was added to each well in a 96-well plate. Cells resuspended in standard culturing media were added in a 1:1 volume to give 7×10^4 cells per well. After 24 h, the transfection media were replaced with complete culturing media. After additional 2 days, cells were exposed to 1× cytokine cocktail, followed by immunoblotting and cytotoxicity analysis as described above.

EndoC-βH1 cells [2] = experiment: Total cellular insulin content, HTRF insulin assay; assay type: cell-based, human; conditions: 24 hr
Protocol: GSIS and insulin quantification. EndoC-βH1 cells with dose titrations of Glc+PA, zinc or cytokines cocktail in a 96-well plate were switched to a Krebs buffer (Alfa Aesar, cat. #J67795). After cell starvation in Krebs buffer for 1 h, EndoC-βH1 cells were replaced with fresh Krebs buffer containing 20 mM glucose plus 45 μM IBMX. After 45 min, the Krebs buffer was collected for measurement of secreted insulin. Cells were then lysed by 100 μl/well Krebs buffer with 1% DDM. Total insulin content was measured in 100-fold diluted cell lysate, A homogeneous time resolved fluorescence (HTRF) based ultra-sensitive insulin kit (Cisbio, cat. #62IN2PEG) was used to detect both secreted and total insulin as described previously (60).

ZnT8 [3] = experiment: Immunoblotting of ZnT8 (mAb20) in total cell lysate; assay type: cell-based, human; conditions: 24 hr
Protocol: Immunoblotting. Cells in a 96-well plate were directly resuspended in 50 μl/well 1× Laemmli Sample Buffer (Bio-Rad cat. #1610737). An aliquot of 15 μl SDS-lysate was loaded onto a precast protein gel for SDS-PAGE and subsequent immunoblotting using the following antibodies directed to ZnT8 (mAb20), tubulin (Invitrogen, Cat. #MA1-83256), calnexin (Proteintech, Cat. #10427-2-AP), BAP31 (Proteintech, Cat. #11200-1-AP), IA2 (Proteintech, Cat. #10584-1-AP), TMED3 (Proteintech, Cat. #21902-1-AP), VAMP2 (Proteintech, Cat. #10135-1-AP), Golgin97 (Proteintech, Cat. #12640-1-AP) and HLA-I (Proteintech, Cat. #15240-1-AP). Protein band intensity was measured using ImageJ, and the numerical value for each stressor-treated protein sample was normalized to the untreated sample on the same immunoblot.
as §1, with “After 24 h, the transfection media were replaced with complete culturing media. After additional 2 days, cells were exposed to 1× cytokine cocktail, followed by immunoblotting and cytotoxicity analysis as described above.” left out

[4] = tested on: endogenous ZnT8 in EndoC-βH1 cells; experiment: In-cell ZnT8-ELISA tracking the endogenous ZnT8 level under stressor exposure; assay type: cell-based, human
Protocol: Stressor exposures. PA-BSA conjugation was prepared by adding PA powder to a final concentration of 8 mM in 1.6 mM FFA-free BSA (Sigma, Cat. #A7030-50G) pre-dissolved in 135 mM NaCl, 3.6 mM KCl, 0.5 mM MgCl2, and 10 mM HEPES (pH 7.4). The mixture was incubated with gentle stir at 37° C. and then filter-sterilized and stored at 4° C. as described previously (79). When added to the cell culture, the PA-BSA mixture was diluted 13.3-fold with supplement of glucose to make a 1× Glc+PA solution containing 0.6 mM PA and 48 mM Glc. A cytokine cocktail was prepared before each experiment by mixing individual stock solutions of IL-1β, IFN-γ, IL-17, […] at respective concentrations used previously on human islets and EndoC-PHI cells (37). 1× cytokine cocktail in the culture medium contained 5 ng/ml IL-1β, 10 ng/ml TNF-α, 50 ng/ml IFN-γ and 100 ng/ml IL-17 All cytokines were provided by R&D Systems (Minneapolis, MN, USA). […] After a designated exposure period, the endogenous ZnT8 level in each well was analyzed along with stress-induced cytotoxicity, GSIS and cellular insulin content. […]
In-cell ELISAs. […] The HRP reaction was terminated at 5 min by transferring the reaction mixture to a 96-well opaque microplate for chemiluminescence quantification on a FlexStation-3 multi-mode microplate reader.

ZnT8 [5] = biological target: T1, ZnT8 (Homo sapiens, UniProt Q8IWU4); conditions: cited from earlier work
T1 sequence (Q8IWU4 1-369): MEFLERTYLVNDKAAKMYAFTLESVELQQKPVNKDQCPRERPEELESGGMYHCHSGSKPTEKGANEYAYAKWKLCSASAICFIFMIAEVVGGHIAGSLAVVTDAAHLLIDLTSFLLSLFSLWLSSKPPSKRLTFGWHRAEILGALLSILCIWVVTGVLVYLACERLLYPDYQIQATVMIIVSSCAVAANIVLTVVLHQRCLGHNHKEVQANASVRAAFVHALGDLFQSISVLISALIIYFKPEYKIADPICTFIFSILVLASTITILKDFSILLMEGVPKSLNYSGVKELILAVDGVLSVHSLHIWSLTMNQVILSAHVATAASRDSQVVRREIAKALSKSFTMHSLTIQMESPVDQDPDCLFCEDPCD

[6] = 1 μM epoxomicin with 1× cytokines

**Q.** For CC[C@H](C)[C@H](NC(=O)[C@H]([C@@H](C)CC)N(C)C(C)=O)C(=O)N[C@H](C(=O)N[C@@H](CC(C)C)C(=O)[C@@]1(C)CO1)[C@@H](C)O [epoxomicin], which damaged cells (EndoC-βH1 cells [1]; combination of epoxomicin and 1× cytokine, 24 hr exposure) is on record?
**A.** Its damaged cells is 26.8%.

**Q.** What about the “cytokine-induced downregulation of insulin” value (EndoC-βH1 cells [2]; [6]) of the same molecule?
**A.** The value was “blocked”.

**Q.** And the “cytokine-induced downregulation of ZnT8” value (ZnT8 [3]; [6])?
**A.** The value was “blocked”.

**Q.** And the ZnT8 expression (ZnT8 [3]; epoxomicin alone, 1 μM)?
**A.** The ZnT8 expression was “neither altered ZnT8 expression”.

**Q.** Which “zinc toxicity (CellTox, FIG. 2F)” value (EndoC-βH1 cells [1]; 600 μM zinc) does the source give for [Zn] [zinc] here?
**A.** Its value is “zinc toxicity was evident”.

**Q.** And the “cell integrity (CellTox fluorescence)” value (EndoC-βH1 cells [1]; modest zinc exposure (<=200 μM), compared to untreated cells)?
**A.** Its value is “did not alter the cell integrity”.

**Q.** What about the “cellular insulin content, dose profile” value (EndoC-βH1 cells [2]; increasing stressor concentration) of the same molecule?
**A.** The value was “increased the insulin content”.

**Q.** What about the “endogenous ZnT8 level, dose profile” value ([4]; extracellular zinc from trace amount (EDTA chelation) to 600 μM) of the same molecule?
**A.** The value was “biphasic change”.

**Q.** What about the “zinc concentration at the peak of the biphasic ZnT8 profile” value ([4]; extracellular zinc up to 600 μM) of the same molecule?
**A.** The value was “around 10 μM”.

B1: mAb20: anti-ZnT8 monoclonal antibody; heavy chain and light chain SEQ ID NOS:32 and 37 (antibody)
heavy: MDMRVPAQLLGLLLLWLRGARCQIQLVQSGPELKKPGETVKISCKASGYIFTNYPMHWVKQAPGKGLKWMGWINTYSGVPTHADDFKGRFAFSLETSANSAFLQINNLKNEDTATYFCTRSRITPTGGYAMDYWGQGTSVTVSSAKTTPPSVYPLAPGSAAQTNSMVTLGCLVKGYFPEPVTVTWNSGSLSSGVHTFPAVLQSDLYTLSSSVTVPSSTWPSETVTCNVAHPASSTKVDKKIVPRDCGCKPCICTVPEVSSVFIFPPKPKDVLTITLTPKVTCVVVDISKDDPEVQFSWFVDDVEVHTAQTQPREEQFNSTFRSVSELPIMHQDWLNGKEFKCRVNSAAFPAPIEKTISKTKGRPKAPQVYTIPPPKEQMAKDKVSLTCMITDFFPEDITVEWQWNGQPAENYKNTQPIMDTDGSYFVYSKLNVQKSNWEAGNTFTCSVLHEGLHNHHTEKSLSHSPGK
light: MDMRVPAQLLGLLLLWLRGARCDVVMTQTPLSLPVSLGDQASISCRSSQSLVHSNGNTYLHWYLQKPGQSPNLLISKVSNRFSGVPERFSGSGSGTDFTLKISRVEAEDLGVYFCSQNTHVPWTFGGGTKLEIKRADAAPTVSIFPPSSEQLTSGGASVVCFLNNFYPKDINVKWKIDGSERQNGVLNSWTDQDSKDSTYSMSSTLTLTKDEYERHNSYTCEATHKTSTSPIVKSFNRNEC
modifications: mAb20 heavy chain; mAb20 light chain
**Q.** For B1, which binding affinity (ZnT8 [5]) is on record?
**A.** Its binding affinity is “subnanomolar”.

B2: mAb39: anti-ZnT8 monoclonal antibody; heavy chain and light chain SEQ ID NOS:52 and 57 (antibody)
heavy: MGWSCIMFFLVATATDVHSQVQLQQPGAELVKPGASVKLSCKASGYSFTTYWMHWVKQRPGQGLEWVGDINPRNGRTNYNEKSKSKATLTVDISSSTVYMQVSSLTSEDSAVYYCAIWSGAMDYWGPGTSVTVSSAKTTAPSVYPLAPVCGDTTGSSVTLGCLVKGYFPEPVTLTWNSGSLSSDVHTFPALLQSGLYTLSSSVTVTTWPSQTITCNVAHPASSTKVDKKIEPRGSPTHKPCPPCPAPNLLGGPSVFIFPPKIKDVLMISLSPMVTCVVVDVSEDDPDVHVSWFVNNVEVHTAQTQTHREDYNSTIRVVSALPIQHQDWMSGKEFKCKVNNKALPAPIERTISKPKGPVRAPQVYVLPPPEEEMTKKQVTLTCMITDFMPEDIYVEWTNNGQTELNYKNTEPVLDSDGSYFMYSKLRVEKKNWVERNSYSCSVVHEGLHNHHTTKSFSRSPGK
light: MKLPVRLLVLMFWIPASSSDVVMTQTPLSLPVSLGDQPSISCKSSQSLVHNNGNTYLHWYLQKPGQSPKLLIYKVSNRFSGVPDRFSGSGSGTDFTLKISRVEAEDLGVYFCSQTTHVPPTFGGGTKLEIKRADAAPTVSIFPPSSEQLTSGGASVVCFLNNFYPKDINVKWKIDGSERQNGVLNSWTDQDSKDSTYSMSSTLTLTKDEYERHNSYTCEATHKTSTSPIVKSFNRGEC
modifications: mAb39 heavy chain; mAb39 light chain
**Q.** For B2, which binding affinity (ZnT8 [5]) is on record?
**A.** Its binding affinity is “subnanomolar”.
